Like-named read-outs stand apart in the source and are kept apart here.
Legend:
[1] = system: micro-organisms as shown in the tables 10A-F; assay: Efficacy of antimicrobial preservation, overall judgement; assay type: cell-based; settings: Ph. Eur. 9.0, section 5.1.3; in oral levothyroxine solution
Source text: Preservation Efficacy Tests […] As comparison, sample 1 of U.S. Pat. No. 9,345,722 has been prepared, in accordance with example 6 of U.S. Pat. No. 9,345,722. The test consists of challenging the sample solution with a prescribed inoculum of suitable micro-organisms as shown in the tables 10A-F, storing the inoculated solution at ambient temperature, avoiding sunlight, withdrawing samples from the container at specified intervals of time and counting the micro-organisms in the samples so removed. The preservative properties of the solution are adequate if, in the conditions of the test, there is a significant fall or no increase, as appropriate, in the number of micro-organisms in the inoculated solution after 14 and 28 days. ATCC stands for the deposit number of the micro-organism at the American Type Culture Collection ATCC.

[2] = cited from earlier work; for behaviour in an aqueous solution: GB2191695

Row | Compound | efficacy of antimicrobial preservation in words [1] | other results
1 | C/C=C/C=C/C(=O)[O-].[Na+] [sodium sorbate] | results similar to that of sorbic acid | –
2 | O=C([O-])c1ccccc1.[Na+] [sodium benzoate] | comply with the relevant criteria | –
3 | O=C(O)c1ccccc1 [benzoic acid] | comply with the relevant criteria | –
4 | O=C([O-])c1ccccc1.[K+] [potassium benzoate] | results similar to that of sodium benzoate | –
5 | N[C@@H](Cc1cc(I)c(Oc2cc(I)c(O)c(I)c2)c(I)c1)C(=O)O [levothyroxine, 3,5,3′,5′-tetraiodo-L-thyronine] | – | behaviour in an aqueous solution ([2]; pH 11-12): dissolves; behaviour in an aqueous solution ([2]; pH lowered further to pH 5-6): formation of a precipitate; behaviour in an aqueous solution ([2]; pH lowered to pH 7): white pale suspension
6 | C/C=C/C=C/C(=O)[O-].[K+] [potassium sorbate] | results similar to that of sorbic acid | –
7 | COC(=O)c1ccc(O)cc1.[Na] [sodium methyl paraben, sodium methyl parahydroxybenzoate] | less efficient preservative | –
8 | N[C@@H](Cc1cc(I)c(Oc2cc(I)c(O)c(I)c2)c(I)c1)C(=O)[O-].[Na+] [Levothyroxine sodium, sodium (2S)-2-amino-3-[4-(4-hydroxy-3,5-diiodophenoxy)-3,5-diiodophenyl]-propanoate] | – | solubility in 96% ethanol ([2]; 96% ethanol): slightly soluble; solubility in water ([2]; water): very slightly soluble
9 | C/C=C/C=C/C(=O)O [sorbic acid] | comply with the relevant criteria | –
